Measured values taken from patent US5021431A, “Imidazolyl alkyl guanidine derivatives, processes for their preparation and pharmaceutical preparations containing these compounds” (Heumann Pharma GmbH & Co., priority 1985, dated 1991).
Counter-ions that a name gives are not always drawn. Like-named read-outs stand apart in the source and are kept apart here.

Key:
H1 receptor = H1 receptor (Cavia porcellus, UniProt P31389); assay: cell-based; conditions: isolated ileum of the guinea pig; for Kb: read-out: pA2 ileum (H1-antagonistic effect) (converted)
Sequence of H1 receptor (P31389 whole entry): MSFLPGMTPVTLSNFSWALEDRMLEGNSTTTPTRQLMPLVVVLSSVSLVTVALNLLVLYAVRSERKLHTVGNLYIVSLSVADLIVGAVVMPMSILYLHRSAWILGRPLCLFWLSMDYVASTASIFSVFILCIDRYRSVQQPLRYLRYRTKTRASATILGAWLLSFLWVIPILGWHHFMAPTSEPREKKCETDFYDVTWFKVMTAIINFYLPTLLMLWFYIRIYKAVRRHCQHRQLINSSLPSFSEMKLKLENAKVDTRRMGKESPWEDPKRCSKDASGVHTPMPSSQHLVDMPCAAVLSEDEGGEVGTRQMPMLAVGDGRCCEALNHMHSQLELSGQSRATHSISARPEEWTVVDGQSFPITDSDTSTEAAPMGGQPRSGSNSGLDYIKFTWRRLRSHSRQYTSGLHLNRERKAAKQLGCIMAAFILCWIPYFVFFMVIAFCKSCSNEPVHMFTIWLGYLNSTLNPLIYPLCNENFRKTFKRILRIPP
Description: The new class of structures according to the invention has both an H1 -antagonistic and an H2 -agonistic active component. […] One recognized method for determining H1 -antagonistic activity is the determination of the pA2 -values in vitro (O. ARUNLAKSHANA and H. O. SCHILD (1959) Some quantitative uses of drug antagonists--Br. J. Pharmacol. Chemother. 14, 48-58).
(§1) Pharmacological Data (determined on the isolated atrium or ileum of the guinea-pig)
(§2) The values listed below represent the H2 -agonistic (pD2) and H1 -antagonistic (pA2) effect of the dual active compounds

histamine-H2 receptors = biological target: T1, histamine-H2 receptors (Cavia porcellus, UniProt P47747); assay: cell-based; parameters: species or system guinea-pig
T1 construct: determined on the isolated atrium or ileum of the guinea-pig; from tissue; host or cells: isolated right atrium of the guinea-pig
T1 sequence (P47747 whole entry): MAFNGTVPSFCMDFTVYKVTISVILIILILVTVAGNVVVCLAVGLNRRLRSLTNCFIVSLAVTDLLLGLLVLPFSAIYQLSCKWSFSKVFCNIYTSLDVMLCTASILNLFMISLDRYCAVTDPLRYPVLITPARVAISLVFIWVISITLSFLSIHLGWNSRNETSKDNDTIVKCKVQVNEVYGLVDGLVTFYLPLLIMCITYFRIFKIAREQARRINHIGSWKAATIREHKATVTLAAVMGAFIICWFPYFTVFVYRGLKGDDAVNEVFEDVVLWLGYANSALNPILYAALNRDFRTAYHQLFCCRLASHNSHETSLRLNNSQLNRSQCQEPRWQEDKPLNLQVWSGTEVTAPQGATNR
Description: For determining the H2 -agonistic activity (pD2 -values), use is made of the method according to J. M. VAN ROSSUM, (1963), Cumulative dose-response curves, II, Technique for the making of dose-response curves in isolated organs and the evaluation of drug parameters, Arch. Int. Pharmacodyn. Ther. 143, 299-307.
as §1, §2

[1] = isolated right atrium of the guinea pig, read-out: pD2 right atrium (H2-agonistic effect) (converted)
[2] = isolated right atrium of the guinea pig

SMILES | Kb (H1 receptor) | EC50 (histamine-H2 receptors; [1]) | pA2 ileum (H1-antagonistic effect) (H1 receptor) | pD2 right atrium (H2-agonistic effect) (histamine-H2 receptors; [2]) | EC50 (histamine-H2 receptors)
Cc1ccc(N(C)CCCNC(=N)NCCCc2c[nH]cn2)nc1 [Example 10, N^1-[3-[N-(5-Methyl-pyridin-2-yl)-methylamino]propyl]-N^2-[3-(1H-imidazol-4-yl)propyl]guanidine trihydrochloride] | 112 nM | 891 nM | – | – | –
N=C(NCCCCc1cccnc1)NCCCc1c[nH]cn1 [Example 12, N^1-[4-(Pyridin-3-yl)butyl]-N^2-[3-(1H-imidazol-4-yl)propyl]guanidine trihydrochloride] | 562 nM | 200 nM | – | – | –
Cc1cc(Br)cnc1CCCCNC(=N)NCCCc1c[nH]cn1 [Example 17, N^1-[4-(5-Bromo-3-methyl-pyridin-2-yl)butyl]-N^2 [3-(1H-imidazol-4-yl)propyl]-guanidine trihydrochloride] | 3.24 nM | 1200 nM | – | – | –
Cc1[nH]c(CN(C)C)nc1CSCCNC(=N)NCCCc1c[nH]cn1 [Example 51, N-[2-[(2-Dimethylaminomethyl-5-methylimidazol-4-yl)methylthio]ethyl]-N'-[3-(imidazol-4-yl)propyl]-guanidine] | 3160 nM | 67.6 nM | – | – | –
CC(SCCNC(=N)NCCCc1c[nH]cn1)c1ccccc1 (stereo not drawn) [Example 60, N-[3-(Imidazol-4-yl)propyl]-N'-[2-[(1-phenylethyl)thio]ethyl]-guanidine] | 2290 nM | 288 nM | – | – | –
Cc1ccc(C(SCCNC(=N)NCCCc2c[nH]cn2)c2ccccc2)cc1 (stereo not drawn) [Example 62, N-[3-(Imidazol-4-yl)propyl]-N'-[2-[(p-methyl-α-phenylbenzyl)thio]ethyl]-guanidine] | 11500 nM | 3890 nM | – | – | –
N=C(NCCCc1c[nH]cn1)NCCC(c1ccccc1)c1ccccc1 [Example 78, N-[3-(Imidazol-4-yl)propyl]-N'-(3.3-diphenylpropyl)-guanidine] | 63.1 nM | 67.6 nM | 7.20 | – | –
Cc1[nH]cnc1CCCNC(=N)NCCC(c1ccccc1)c1ccccc1 [Example 96, N-[3-(5-Methylimidazol-4-yl)propyl]-N'-(3,3-diphenylpropyl)-guanidine] | 126 nM | 126 nM | 6.9 | – | –
N=C(NCCCc1c[nH]cn1)NCCCC(c1ccccc1)c1ccccc1 [Example 97, N-[3-(Imidazol-4-yl)propyl]-N'(4,4-diphenylbutyl)-guanidine] | 158 nM | 200 nM | – | – | –
N=C(NCCCc1c[nH]cn1)NCCN(Cc1ccccc1)c1ccccc1 [Example 101, N^1-[3-(4-Imidazolyl)propyl]-N^2-[2-(N-benzyl-N-phenylamino)-ethyl]-guanidine trihydrochloride] | – | – | 7.41 | 6.15 | –
N=C(NCCCc1c[nH]cn1)NCCN(Cc1ccccc1)c1ccc(F)cc1 [Example 102, N^1-[3-(4-Imidazolyl)propyl]-N^2-[2-(N-benzyl-N-(4-fluorophenyl)amino)ethyl]-guanidine trihydrochloride] | 25.1 nM | 234 nM | – | – | –
N=C(NCCCc1c[nH]cn1)NCCN(Cc1ccccc1)c1ccc(Cl)cc1 [Example 103, N^1-[3-(4-Imidazolyl)propyl]-N^2-[2-(N-benzyl-N-(4-chlorophenyl)amino)ethyl]-guanidine trihydrochloride] | 29.5 nM | 2690 nM | – | – | –
N=C(NCCCc1c[nH]cn1)NCCN(Cc1ccccc1)c1ccc(Br)cc1 [Example 104, N^1-[3-(4-Imidazolyl)propyl]-N^2-[2-(N-benzyl-N-(4-bromophenyl)amino)ethyl]-guanidine trihydrochloride] | 57.5 nM | 6920 nM | – | – | –
N=C(NCCCc1c[nH]cn1)NCCSCc1cccs1 [Example 105, N-[3-(Imidazol-4-yl)propyl]-N'-[2-(2-thenylthio)ethyl]-guanidine] | 1230 nM | – | – | – | 51.3 nM
CC(CSCc1ccccn1)NC(=N)NCCCc1c[nH]cn1 (stereo not drawn) [Example 121, N-[3-(Imidazol-4-yl)propyl]-N'-[1-methyl-2-[(pyrid-2-yl)methylthio]-ethyl]-guanidine] | 2000 nM | 51.3 nM | – | – | –
N=C(NCCCc1c[nH]cn1)NCCSC(c1ccccc1)c1ccccn1 (stereo not drawn) [Example 123, N-[3-(Imidazol-4-yl)propyl]-N'-[2-[(phenyl(pyrid-2-yl)methyl)thio]ethyl]-guanidine] | – | 224 nM | 7.0 | – | –

SMILES | Kb (H1 receptor) | EC50 (histamine-H2 receptors; [1]) | pA2 ileum (H1-antagonistic effect) (H1 receptor) | pD2 right atrium (H2-agonistic effect) (histamine-H2 receptors; [2]) | EC50 (histamine-H2 receptors)
N=C(NCCCc1c[nH]cn1)NCCC(c1ccccc1)c1ccccn1 (stereo not drawn) [Example 127] | 52.5 nM | 39.8 nM | 7.28 | 7.4 | –
N=C(NCCCc1c[nH]cn1)NCCC(c1ccc(Cl)cc1)c1ccccn1 (stereo not drawn) [Example 129, N-[3-(4-Chlorophenyl)-3-(pyrid-2-yl)propyl]-N'-[3-(imidazol-4-yl)propyl]-guanidine] | 31.6 nM | 63.1 nM | – | – | –
N=C(NCCCc1c[nH]cn1)NCCC(c1ccc(Br)cc1)c1ccccn1 (stereo not drawn) [Example 131, N-[3-(4-Bromophenyl)-3-(pyrid-2-yl)propyl]-N'-[3-(imidazol-4-yl)propyl]-guanidine] | 316 nM | 83.2 nM | – | – | –
NC(=NCCC(c1ccc(F)cc1)c1ccccn1)NCCCc1cnc[nH]1 (stereo not drawn) [Example 133, N-[3-(4-Fluorophenyl)-3-(pyrid-2-yl)propyl]-N'-[3-(imidazol-4-yl)propyl]-guanidine] | 31.6 nM | 12.6 nM | – | – | –
N=C(NCCCc1c[nH]cn1)NCCC(c1ccccn1)c1cccs1 (stereo not drawn) [Example 134, N-[3-(Imidazol-4-yl)propyl]-N'-[3-(pyrid-2-yl)-3-(2thienyl)propyl]-guanidine] | 50.1 nM | 93.3 nM | – | – | –
N=C(NCCCc1c[nH]cn1)NCCCC(c1ccccc1)c1ccccn1 (stereo not drawn) [Example 136, N-[3-(Imidazol-4-yl)propyl]-N'-[4-phenyl-4-(pyrid-2-yl)butyl]-guanidine] | – | 112 nM | 6.6 | – | –
NC(=NCCN(Cc1ccccc1)c1ccccn1)NCCCc1c[nH]cn1 [Example 140, N^1-[3-(4-imidazolyl)propyl]-N^2-[2-(N-benzyl-N-(pyrid-2-yl)-amino)ethyl]-guanidine trihydrochloride] | 8.91 nM | 1260 nM | – | – | –
N=C(NCCCc1c[nH]cn1)NCCN(Cc1ccc(Cl)cc1)c1ccccn1 [Example 141, N^1-[3-(1H-Imidazol-4-yl)propyl]-N^2-[2-[N-(4-chlorobenzyl) N-(pyridin-2-yl).amino]ethyl]-guanidine] | 12.3 nM | 1000 nM | – | – | –
COc1ccc(CN(CCN=C(N)NCCCc2c[nH]cn2)c2ccccn2)cc1 [Example 142, N^1-[3-(1H-Imidazol-4-yl)propyl]-N2-[2-[N-(4-methoxybenzyl)-N-(pyridin-2-yl)-amino]ethyl]-guanidine] | 8.32 nM | 1580 nM | – | – | –
NC(=NCCN(Cc1ccc(F)cc1)c1ccccn1)NCCCc1c[nH]cn1 [Example 143, N^1-[3-(1H-Imidazol-4-yl)propyl]-N^2-[2-[N-(4-fluorobenzyl)-N-(pyridin-2-yl)-amino]ethyl]-guanidine] | 2.57 nM | 1950 nM | – | – | –
Cc1cc(Br)cnc1N(CCNC(=N)NCCCc1c[nH]cn1)Cc1ccccc1 [Example 144, N^1-[2-[N-(5-Bromo-3-methyl-pyridin-2-yl)-benzylamino]ethyl]-N^2-[3-(1H-imidazol-4-yl)propyl]-guanidine trihydrochloride] | 398 nM | 6030 nM | – | – | –
N=C(NCCCc1c[nH]cn1)NCCN(c1ccccc1)c1ccccc1 [Example 145, N^1-[3-(Imidazol-4-yl)propyl]-N^2-[2-(diphenylamino)ethyl]-guanidine trihydrochloride] | 398 nM | 6030 nM | – | – | –
N=C(NCCCc1c[nH]cn1)NCCN(c1ccccc1)c1ccc(F)cc1 [Example 146, N^1-[3-(Imidazol-4-yl)propyl]-N^2-[2-N-(phenyl-N(4-fluorophenyl)amino)ethyl]-guanidine trihydrochloride] | 1000 nM | 1100 nM | – | – | –
N=C(NCCCc1c[nH]cn1)NCCN(c1ccccc1)c1ccccn1 [Example 147, N^1-[3-(Imidazol-4-yl)propyl]-N^2-[2-(N-(2-pyridyl)-N-phenylamino)ethyl]-guanidine trihydrochloride] | 126 nM | 100 nM | – | – | –
N=C(NCCCc1c[nH]cn1)NCCN(c1ccc(F)cc1)c1ccccn1 [Example 148, N^1-[3-(Imidazol-4-yl)propyl]-N^2-[2-(N-(2-pyridyl)N-(4-fluorophenyl)amino)ethyl]-guanidine trihydrochloride] | 15.8 nM | 316 nM | – | – | –
